This note sets out measurements from PubChem BioAssay AID2253 (Southern Research Specialized Biocontainment Screening …, 2010).

Each structure is given as a SMILES string.

In the test the test system is THP-1 viability, CellTiter-Glo luminescence, 72 h. Kind of test: human monocytic cell viability reduction – S. typhimurium screen hits, cytotoxicity control for Salmonella PhoP regulon inhibitors, dose response (AID 2253).
Take `CCN(CC)CCOc1ccc2c(c1)C(=NNC(=O)c1ccccn1)c1cc(OCCN(CC)CC)ccc1-2`: the EC50 is 3.57 µM.

As to `Cc1cc(/C=N/n2c(COc3ccccc3)nc3ccccc3c2=O)c(O)c([N+](=O)[O-])c1`, the EC50 was 4.71 µM.

With `CC[n+]1c(/C=C/c2ccc(N(C)C)cc2)ccc2ccccc21`, the EC50 is 0.64 µM. For the molecule `Nc1nonc1C(=O)N/N=C/c1cc(Br)ccc1O`, the EC50 was 3.12 µM.

Turning to `COc1ccc2c(c1)nc(N)n2Cc1ccccc1`, the EC50 is 46.3 µM. In the case of `CCc1ccc(S(=O)(=O)/N=C2/C=C(Sc3ncn[nH]3)C(=O)c3ccccc32)cc1`, the EC50 was 4.28 µM. The value for `NC1=NC[C@H](Cc2ccccc2)N1CCCCC1CCCCC1` was 3.71 µM.

As for `Cc1ccccc1-n1nnnc1Sc1nnnn1-c1ccccc1`, the EC50 was 12 µM.

In the case of `O=C1NC2=C(CCc3ccccc32)C(c2ccc(Br)cc2)N1` (stereo not given), the EC50 was 19.3 µM. The value for `CCCCCOc1ccc(CSC(=N)N)cc1[N+](=O)[O-]` was 7.91 µM. With `Cc1ccc(S(=O)(=O)Nc2cc(Cl)c(O)c3ncccc23)cc1` the figure was 1.55 µM.

Regarding `CCCC(=O)NC(c1ccc(N(C)C)cc1)c1ccc2cccnc2c1O` (stereo not given), the EC50 was 0.61 µM. The value for `Oc1cccc2ccc(Nc3ccccn3)nc12` was 2.16 µM; that for `COc1ccccc1-n1c(SCc2cc(=O)oc3cc(O)ccc23)nc2ccccc2c1=O` was 21.6 µM; that for `Cc1ccc(O)c(-c2cc(-c3ccccc3C)[nH]n2)c1` was 19.9 µM. With `Cc1ccnc(NC(c2cccnc2)c2ccc3cccnc3c2O)c1` (stereo not given) the figure was 12 µM; with `CSc1ccc2c(c1)C(N1CCN(C)CC1)Cc1ccccc1S2` (stereo not given), 10.6 µM; with `CC1=C(C(=O)OCC2CCCO2)C(c2cccc(C(F)(F)F)c2)C2=C(CC(c3ccco3)CC2=O)N1` (stereo not given), 42.7 µM. With `O=C1c2ccccc2C2=Nc3ccccc3SC(c3cccc(F)c3)C12` (stereo not given) the figure was 8.95 µM; with `O=C(C[n+]1cc(-c2ccc(Cl)c(Cl)c2)n2c1CCC2)N1c2ccccc2Sc2ccccc21`, 17.8 µM. Turning to `Nc1ncn(C2O[C@H](CO)[C@@H](O)[C@H]2O)c(=O)n1` (stereo not given in full), the EC50 is 10.8 µM. With `O=S1(=O)N=C(N/N=C/c2ccccn2)c2ccccc21` the figure was 22.9 µM. With `O=C(N/N=C/c1ccc(O)cc1O)/C(=C/c1ccccc1)CCO` the figure was 4.05 µM; with `Cc1cc(/C=N/NC(N)=S)c(C)n1-c1ccc(Cl)c(Cl)c1`, 19.8 µM. The value for `N/C(=N\OC(=O)N1c2ccccc2Sc2ccccc21)c1ccccc1` was 25.1 µM.

Turning to `C/C(=N\N=C(N)N)c1ccc(Cl)c(Cl)c1`, the EC50 was 11.2 µM.

With `O=C(N/N=C/c1cccc([N+](=O)[O-])c1O)c1cccs1`, the EC50 was 13.4 µM.

Consider `CCOC(=O)CSc1n[nH]c(NC(=O)c2cccc(C)c2)n1`, for which the EC50 was 48.7 µM.

Take `Cc1sc2ncnc(N/N=C/c3ccccc3O)c2c1C`: the EC50 is 0.51 µM. The value for `O=C(CSc1nc(Nc2ccccc2)nc(N2CCOCC2)n1)Nc1ccc([N+](=O)[O-])cc1` was 37.1 µM; that for `Clc1ccc(-c2csc3ncnc(N4CCc5ccccc5C4)c23)cc1` was 44 µM; that for `COc1c(N2CCN(C(=S)NCc3ccccc3)C(C)C2)c(F)cc2c(=O)c(C(=O)O)cn(C3CC3)c12` (stereo not given) was 15.4 µM. With `CCCCCc1ccc(OCCOCCn2c[n+](C)c3ccccc32)c(CCCCC)c1` the figure was 1.35 µM; with `Clc1ccc(OCCCNCc2ccccc2)c(Br)c1`, 11.5 µM. Consider `O=[N+]([O-])c1ccc(O)c2ncccc12`, for which the EC50 is 8.31 µM. With `COc1cccc(-n2c(SCc3cc(=O)oc4cc(O)c(O)cc34)nc3ccccc3c2=O)c1` the figure was 15.1 µM; with `c1csc(C2Nc3cccc4cccc(c34)N2)c1`, 48.8 µM; with `Oc1c(I)cc(Cl)c2cccnc12`, 14.4 µM. With `O=C(Nc1ccccc1)Nc1ccc(Cl)c([N+](=O)[O-])c1` the figure was 14.2 µM; with `Cc1cc(NC(c2cccnc2)c2ccc3cccnc3c2O)no1` (stereo not given), 1.79 µM. On to `CCN(CC)c1ccc(/C=N/NC(=S)NCc2ccccc2)c(O)c1`, for which the EC50 is 7.54 µM.

For `O=c1ccc2ccc(Oc3ccc([N+](=O)[O-])cc3[N+](=O)[O-])cc2o1`, the EC50 was 7.86 µM. With `Cc1cc(C)cc(OC(=O)CS(=O)c2ccc(C(F)(F)F)cc2[N+](=O)[O-])c1` (stereo not given), the EC50 was 5.98 µM. Take `Oc1ccc(-c2n[nH]c(=S)n2-c2ccc3c(c2)OCCO3)c(O)c1`: the EC50 is 33.8 µM. The value for `C1CCC(C(CC2CCCCN2)C2CCCCC2)CC1` (stereo not given) was 5.45 µM; that for `Cc1ccc(-n2c(C)cc(C3=NNC(=NC4CC4)SC3)c2C)cc1C` was 21.4 µM; that for `CCCCOc1ccc(Br)cc1CSC(=N)N` was 5.78 µM. For `COc1ccc(-c2csc(NCc3ccco3)n2)cc1`, the EC50 was 38.5 µM. For `COc1ccc(Nc2cc(C)nc(NCc3ccccc3)n2)cc1`, the EC50 was 10.1 µM. As to `O=C1OC(/C(=C\Nc2ccc(F)cc2F)[N+](=O)[O-])c2ccccc21` (stereo not given), the EC50 was 31.7 µM. The value for `Oc1c(CN2CCOCC2)cc(COCc2ccccc2)c2cccnc12` was 3.1 µM; that for `c1ccc(Nc2ccnc(Nc3ccccc3)n2)cc1` was 35 µM. The value for `O=C(Nc1cccc(Cl)c1)Nc1ccc2c(c1)OCO2` was 36.8 µM; that for `COc1cc(NC(=O)Nc2cccc(Cl)c2)c(OC)cc1NC(=O)CN1CCCCC1` was 15.5 µM. With `O=C(NC(c1ccc(Cl)cc1)c1c(O)ccc2ccccc12)c1ccccc1` (stereo not given) the figure was 8.91 µM; with `CCn1c(C)cc(=S)c2ccccc21`, 48.2 µM. Turning to `CN1/C(=C\C=C\C2=[N+](C)c3ccc4ccccc4c3C2(C)C)C(C)(C)c2ccccc21`, the EC50 was 0.15 µM.

Regarding `COc1cc(C(=O)Oc2c(CN3CCOCC3)cc(Cl)c3cccnc23)cc(OC)c1OC`, the EC50 is 4.46 µM. As for `c1ccc(CNc2c3c(nc4ccccc24)CCC3)cc1`, the EC50 was 11.3 µM. With `Cc1ccc(Nc2c3c(nc4ccccc24)CCC3)cc1` the figure was 12.2 µM. The value for `NC1=NC(=Nc2ccc(Cl)cc2)c2ccccc21` was 22.4 µM; that for `CC[C@H]1OC(=O)C[C@@H](O)[C@H](C)[C@@H](O[C@@H]2O[C@H](C)C[C@H](N(C)C)[C@H]2O)[C@@H](CC=O)C[C@@H](C)C(=O)C=C[C@]2(C)O[C@H]2[C@@H]1C` was 11.9 µM; that for `O=C(C[n+]1cccc(CNC(=O)c2ccc(OC(F)F)cc2)c1)Nc1ccc(SC(F)F)cc1` was 11.7 µM.

On to `C/C(CC(=O)Nc1ccc(Cl)c(C(F)(F)F)c1)=N\NC(=O)c1cccc(O)c1`, for which the EC50 is 24.2 µM. As to `Cc1ccc(C=Nc2ccccc2C(N)=O)s1`, the EC50 is 10.8 µM.

For the molecule `O=C(Nc1ccc(Br)cc1)c1ccc(F)c(S(=O)(=O)NCc2cccs2)c1`, the EC50 was 21.7 µM. The value for `COc1ccc(O)c(/C=c2/sc3nc4cc(C)c(C)cc4n3c2=O)c1` was 34.1 µM. On to `Cc1ccc(C(C[N+](=O)[O-])c2c(N)n(C)c(=O)n(C)c2=O)cc1` (stereo not given), for which the EC50 was 34.2 µM. Consider `CCCCCc1ccc(OCCC[n+]2ccccc2)c(CCCCC)c1`, for which the EC50 is 2.78 µM. `CCNC(=S)NNC(=O)c1ccccn1`: the EC50 was 25.5 µM. With `S=C(Nc1cccc(Cl)c1)Nc1cccc2cnccc12` the figure was 19 µM. The value for `Oc1ccc(N2CCN(Cc3ccc(OCCCN4CCCCC4)cc3)CC2)cc1` was 29.5 µM; that for `c1ccc(CN2CCN(c3nc(NCc4ccco4)c4ccccc4n3)CC2)cc1` was 20.6 µM; that for `CN1CCN(C(c2ccccn2)c2cc(Cl)c3cccnc3c2O)CC1` (stereo not given) was 9.2 µM. The value for `Oc1ccc(CNc2ccccc2F)c2cccnc12` was 4.93 µM. As for `CCn1c(SCC(=O)Nc2ccc3c(c2)oc2ccccc23)nnc1-c1ccc(N)cc1`, the EC50 is 29.9 µM. Regarding `C/C(=C\C(=O)c1cccnc1)Nc1ccc(O)cc1`, the EC50 was 47.6 µM. The value for `O=c1c(Cl)c(Cl)cnn1-c1ccccc1` was 1.41 µM; that for `Cc1cc(/C=N/n2c(COc3ccccc3C)nc3ccccc3c2=O)c(O)c([N+](=O)[O-])c1` was 2.52 µM.

Take `COc1ccc2c(c1)[nH]c1c(N3CCN(Cc4ccc5c(c4)OCO5)CC3)ncnc12`: the EC50 is 6.85 µM. The value for `N#CC(C#N)=c1ccc2c(c1)NC1(CCCCC1)N=2` was 4.08 µM. The value for `O=C(N/N=C/c1cn(-c2ccccc2)nc1-c1ccc(F)cc1)c1ccc2c(c1)OCO2` was 35 µM; that for `O=C(N/N=C/C1CC=CCC1)c1ccc(Cl)cc1O` (stereo not given) was 26.4 µM. With `NNC(=O)c1cc2ccccc2cc1O` the figure was 11.9 µM; with `CN(c1ccccc1)S(=O)(=O)c1cc(C(=O)Nc2nc3ccccc3[nH]2)ccc1Cl`, 24.1 µM; with `Cc1ccccc1NC(=O)CCC(=O)N/N=C/c1cc([N+](=O)[O-])ccc1O`, 19.5 µM. For the molecule `O=C(NC1CCCCC1)C(c1ccncc1)N(Cc1ccccc1)C(=O)c1ccc(-c2ccccc2)[nH]1` (stereo not given), the EC50 is 22.5 µM. Turning to `O=C(N/N=C/c1sc2ccccc2c1O)c1cccc2ccccc12`, the EC50 was 3.51 µM.

For `O=[N+]([O-])c1ccc(-n2nnnc2-c2ccccc2)c([N+](=O)[O-])c1`, the EC50 was 10.1 µM. `O=[N+]([O-])c1cc(CN2CCCC2)c2cccnc2c1O`: the EC50 was 41.2 µM. As for `NC1=NC(=Nc2ccc(Br)cc2)c2ccccc21`, the EC50 was 25.8 µM. With `Cc1cc(C(=O)N/N=C/c2ccc(O)c(O)c2O)c(C)n1-c1ccccc1` the figure was 4.48 µM. For `CC(=O)Oc1cc2cccc(OC(C)=O)c(=O)c2c(OC(C)=O)c1OC(C)=O`, the EC50 is 14.6 µM. With `N/C(=N/OC(=O)c1ccccc1Cl)c1ncc([N+](=O)[O-])s1` the figure was 18.8 µM; with `NC1=NC2(CCCCC2)N=C(Nc2ccc(Br)cc2)N1`, 2.8 µM; with `O=C(Nc1ccccc1)Nc1ncc([N+](=O)[O-])s1`, 15.8 µM. With `CCOC(=O)N1CCN(S(=O)(=O)c2ccc(C(=O)NNc3nc4c(C)cc(C)cc4s3)cc2)CC1` the figure was 3.28 µM; with `Cc1ccc(C(c2cc(Cl)c3cccnc3c2O)N2CCN(C)CC2)cc1` (stereo not given), 1.89 µM; with `COc1cccc(/C=N/Nc2ncc(C(F)(F)F)cc2Cl)c1O`, 0.97 µM.

With `Cc1c(C)n(Cc2ccccc2)c2ncnc(NN)c12`, the EC50 is 23.4 µM.
